Results published in ChEMBL document CHEMBL3352452, “Phosphoinositide-3-kinase inhibitors: evaluation of substituted alcohols as replacements for the piperazine sulfonamide portion of AMG 511” (Bioorg Med Chem Lett, 2014).
Activity calls are given as the source filed them. The calls are words filed in the database; no cut-off is given here.

How the values were obtained:
[1] = molecular target: Serine/threonine-protein kinase mTOR (Homo sapiens, UniProt P42345); test: Inhibition of recombinant N-terminally GST-tagged mTOR (1360 to 2549 aa) (unknown origin) assessed as inhibition of 27BP1 phosphorylation after 90 mins by TR-FRET assay
[2] = molecular target: PI3-kinase p110-alpha/p85-alpha (Homo sapiens, UniProt P42336); test: Inhibition of human N-terminal poly-His tagged p110 alpha/ p85alpha expressed in Sf9 Baculovirus system after 20 mins by AlphaScreen assay
[3] = Intrinsic clearance in human liver microsomes at 1 uM after 30 mins; assay type: ADME; conditions: read-out: CLH
[4] = Intrinsic clearance in rat liver microsomes at 1 uM after 30 mins; assay type: ADME; conditions: read-out: CLH
[5] = Inhibition of PI3K-mediated Akt S473 phosphorylation in human U87MG cells after 2 hrs by cell-based assay; parameters: species or system U-87MG ATCC; conditions: U-87 MG
[6] = Terminal half life in Sprague-Dawley rat at 1 mg/kg, iv and 2 mg/kg, po; assay type: ADME, organism-based; conditions: in vivo, read-out: beta t1/2 (converted)
[7] = Oral bioavailability in Sprague-Dawley rat at 2 mg/kg; assay type: ADME, organism-based; conditions: in vivo
Mus musculus [8] = test: Inhibition of HGF-induced PI3K-mediated Akt phosphorylation at Ser473 in female CD1 nude mouse liver compound administered orally 6 hrs prior HGF treatment measured after 5 mins by electrochemical luminescence immunoassay; assay type: functional, organism-based
[9] = Fraction unbound in Sprague-Dawley rat plasma at 1 mg/kg, iv and 2 mg/kg, po; assay type: ADME, organism-based
[10] = Clearance in Sprague-Dawley rat at 1 mg/kg, iv and 2 mg/kg, po; assay type: ADME, organism-based; conditions: in vivo
[11] = Volume of distribution at steady state in Sprague-Dawley rat at 1 mg/kg, iv and 2 mg/kg, po; assay type: ADME, organism-based; conditions: in vivo, read-out: Vdss
Mus musculus [12] = test: Inhibition of HGF-induced PI3K-mediated Akt phosphorylation at Ser473 in female CD1 nude mouse liver at 10 to 30 mg/kg, po administered 6 hrs prior HGF treatment measured after 5 mins by electrochemical luminescence immunoassay; assay type: functional, organism-based
P-gp = test: Efflux ratio of permeability across pig LLC-PK1 cells stably over-expressing rat P-gp at 5 uM; assay type: ADME, cell-based, Sus scrofa

Chain of PI3-kinase p110-alpha/p85-alpha (P27986 whole entry): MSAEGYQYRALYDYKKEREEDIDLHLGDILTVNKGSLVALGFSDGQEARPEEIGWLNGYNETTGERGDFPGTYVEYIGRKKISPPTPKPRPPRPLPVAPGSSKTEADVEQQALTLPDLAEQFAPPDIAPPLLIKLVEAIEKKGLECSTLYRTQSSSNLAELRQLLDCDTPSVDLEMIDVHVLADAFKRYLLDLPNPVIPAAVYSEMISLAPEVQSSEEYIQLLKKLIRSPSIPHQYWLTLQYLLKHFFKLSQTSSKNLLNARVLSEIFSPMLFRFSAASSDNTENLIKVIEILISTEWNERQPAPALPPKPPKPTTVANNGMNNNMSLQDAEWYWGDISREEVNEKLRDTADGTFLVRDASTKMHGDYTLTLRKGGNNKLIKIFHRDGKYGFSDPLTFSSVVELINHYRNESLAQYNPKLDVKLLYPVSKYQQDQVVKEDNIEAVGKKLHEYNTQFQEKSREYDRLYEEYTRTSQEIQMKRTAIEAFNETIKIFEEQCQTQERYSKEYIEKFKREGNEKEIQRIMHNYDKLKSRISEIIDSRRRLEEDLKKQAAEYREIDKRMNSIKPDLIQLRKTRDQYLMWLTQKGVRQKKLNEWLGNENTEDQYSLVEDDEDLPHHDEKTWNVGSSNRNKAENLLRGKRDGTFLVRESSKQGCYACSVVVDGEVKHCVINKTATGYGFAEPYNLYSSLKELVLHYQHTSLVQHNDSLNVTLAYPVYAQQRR
Chain of PI3-kinase p110-alpha/p85-alpha (P42336 whole entry): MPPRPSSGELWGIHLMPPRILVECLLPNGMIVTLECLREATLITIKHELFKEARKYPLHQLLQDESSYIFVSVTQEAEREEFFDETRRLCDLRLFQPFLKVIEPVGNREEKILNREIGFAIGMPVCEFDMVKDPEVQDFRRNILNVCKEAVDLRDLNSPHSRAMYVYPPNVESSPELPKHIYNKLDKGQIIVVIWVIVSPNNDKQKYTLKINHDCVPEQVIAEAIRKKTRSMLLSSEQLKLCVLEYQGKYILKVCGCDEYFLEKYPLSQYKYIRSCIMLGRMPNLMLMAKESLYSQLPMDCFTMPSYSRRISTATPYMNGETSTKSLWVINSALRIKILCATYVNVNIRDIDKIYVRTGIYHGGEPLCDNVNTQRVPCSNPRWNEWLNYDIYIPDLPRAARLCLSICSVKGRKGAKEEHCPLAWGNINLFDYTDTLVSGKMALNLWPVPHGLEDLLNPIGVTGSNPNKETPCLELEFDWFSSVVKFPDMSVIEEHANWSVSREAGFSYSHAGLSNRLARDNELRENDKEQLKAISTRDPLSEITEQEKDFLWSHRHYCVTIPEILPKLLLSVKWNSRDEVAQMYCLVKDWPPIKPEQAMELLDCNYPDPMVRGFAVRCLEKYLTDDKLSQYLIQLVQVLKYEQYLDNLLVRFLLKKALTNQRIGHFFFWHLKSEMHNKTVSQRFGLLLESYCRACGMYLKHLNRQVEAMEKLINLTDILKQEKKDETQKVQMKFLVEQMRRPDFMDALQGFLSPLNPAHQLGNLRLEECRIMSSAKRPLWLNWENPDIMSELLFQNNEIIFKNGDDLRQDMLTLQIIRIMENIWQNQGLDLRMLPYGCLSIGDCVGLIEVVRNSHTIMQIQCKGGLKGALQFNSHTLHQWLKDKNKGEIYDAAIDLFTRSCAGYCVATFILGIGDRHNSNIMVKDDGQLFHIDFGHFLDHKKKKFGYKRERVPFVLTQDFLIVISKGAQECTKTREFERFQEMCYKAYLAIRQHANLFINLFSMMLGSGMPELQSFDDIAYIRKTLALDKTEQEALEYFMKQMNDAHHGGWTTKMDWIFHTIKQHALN

Row | SMILES | IC50 [1] | Ki [2] | microsomal CLint at 1 µM [3] | microsomal CLint at 1 µM [4] | IC50 [5] | further results
1 | COc1cncc(Nc2ncc(C(C)(C)O)cc2-c2nc(C)nc(N)n2)c1 | 2100 nM | 89 nM | 17 µL/min/mg | 19 µL/min/mg |  | 
2 | COc1ncc(Nc2ncc(CO)cc2-c2nc(C)nc(N)n2)cc1F | > 15000 nM | 56 nM |  | 51 µL/min/mg | 44 nM | 
3 | Cc1nc(N)nc(-c2cc(C(C)(C)O)cnc2Nc2cncc(S(C)(=O)=O)c2)n1 | > 16000 nM |  | < 14 µL/min/mg | < 14 µL/min/mg | 1160 nM | 
4 | COc1ncc(Nc2ncc(C(C)(C)O)cc2-c2nc(C)nc(N)n2)cc1F | 7800 nM | 23 nM | < 14 µL/min/mg | 23 µL/min/mg |  | half-life [6]: 3.1 h; bioavailability [7]: 37%; inhibition (Mus musculus [8]): Dose-dependent effect; fraction unbound [9]: 0.06; clearance [10]: 18.3 mL/min/kg; Vd [11]: 1.7 L/kg; inhibition (Mus musculus [12]): Active
5 | COc1ncc(Nc2ncc(C(O)C(F)(F)F)cc2-c2nc(C)nc(N)n2)cc1F (racemic) | 2200 nM | 30 nM | 18 µL/min/mg | 34 µL/min/mg |  | 
6 | COc1ncc(Nc2ncc(C(C)(C)O)cc2-c2nc(C)nc(N)n2)cc1C(F)(F)F | > 25000 nM |  |  |  |  | 
7 | COc1ncc(Nc2ncc([C@@H](C)N3CCN(S(C)(=O)=O)CC3)cc2-c2nc(C)nc(N)n2)cc1F |  |  |  | 20 µL/min/mg |  | half-life [6]: 3.3 h; fraction unbound [9]: 0.08; clearance [10]: 7.5 mL/min/kg
8 | Cc1nc(N)nc(-c2cc(C(C)(C)O)cnc2Nc2cncc(S(=O)(=O)c3ccccc3)c2)n1 | 6700 nM | 224 nM |  |  |  | 
9 | Cc1nc(N)nc(-c2cc(C(C)(C)O)cnc2Nc2cncc(F)c2)n1 | 2500 nM | 87 nM | < 14 µL/min/mg | 15 µL/min/mg |  | 
10 | COc1ncc(Nc2ncccc2-c2nc(C)nc(N)n2)cc1F | > 22000 nM | 48 nM | 99 µL/min/mg | 36 µL/min/mg |  | 
11 | COc1ncc(Nc2ncc(C3(O)CC3)cc2-c2nc(C)nc(N)n2)cc1F | 3700 nM | 16 nM | 39 µL/min/mg | 79 µL/min/mg | 18 nM | 
12 | COc1ncc(Nc2ncc([C@@H](C)CO)cc2-c2nc(C)nc(N)n2)cc1F | > 15000 nM | 40 nM | < 14 µL/min/mg | 37 µL/min/mg |  | 
13 | COc1ncc(Nc2ncc([C@H](C)O)cc2-c2nc(C)nc(N)n2)cc1F | > 25000 nM | 48 nM | < 14 µL/min/mg | < 14 µL/min/mg | 26 nM | 
14 | COc1ncc(Nc2ncc(C(C)(C)CO)cc2-c2nc(C)nc(N)n2)cc1F | > 17000 nM | 40 nM | 34 µL/min/mg | 34 µL/min/mg |  | 
15 | COc1cc(Nc2ncc(C(C)(C)O)cc2-c2nc(C)nc(N)n2)cnc1OC | 10600 nM | 30 nM | < 14 µL/min/mg | < 14 µL/min/mg | 10 nM | efflux ratio at 5 µM (P-gp): 25; half-life [6]: 4.8 h; clearance [10]: 21.7 mL/min/kg; Vd [11]: 4.2 L/kg
16 | COc1ncc(Nc2ncc(C(C)(C)O)cc2-c2nc(C)nc(N)n2)cc1C | 7800 nM | 118 nM | < 14 µL/min/mg | 22 µL/min/mg | 49 nM | 
17 | COc1ncc(Nc2ncc([C@H](C)CO)cc2-c2nc(C)nc(N)n2)cc1F | 11100 nM | 26 nM | 14 µL/min/mg | 36 µL/min/mg |  | 
18 | COc1ncc(Nc2ncc(C(C)(C)O)cc2-c2nc(C)nc(N)n2)cc1C(C)C | > 25000 nM | 153 nM |  |  | 414 nM | 
19 | CCc1cc(Nc2ncc(C(C)(C)O)cc2-c2nc(C)nc(N)n2)cnc1OC | 15800 nM | 469 nM |  |  | 470 nM | 
20 | COc1ncc(Nc2ncc([C@@H](C)O)cc2-c2nc(C)nc(N)n2)cc1F | > 25000 nM | 40 nM | 22 µL/min/mg | 45 µL/min/mg | 20 nM | 
21 | COc1ccc(Nc2ncc(C(C)(C)O)cc2-c2nc(C)nc(N)n2)cn1 | 790 nM | 89 nM | < 14 µL/min/mg | 19 µL/min/mg | 48 nM | 
